Where two headings read alike, the source gives them in different places.

The test system of series [1] is models of LAD occlusion followed by reperfusion. Conditions: at onset of reperfusion, continued 2 hours post-reperfusion; cited from earlier work.
Series [2] concerns rabbit model of coronary occlusion-reperfusion. Conditions: cited from earlier work; for Effect of antagonist on the effects of PolyA (infarct size): given with PolyA, KW-3902 1 mg/kg i.v.
Another series deals with neutrophils. The conditions noted are these: cited from earlier work; for Superoxide generation by neutrophils: neutrophils activated by fMLP, A23187, concanavalin A (adenosine).
For series [3], the system named is canine model of LAD occlusion with reperfusion. The conditions noted are these: cited from earlier work.
Series [4] deals with canine model of severe coronary occlusion. The conditions noted are these: 10 μM in blood perfusate, first 30 min of reperfusion; after two hours of reperfusion; vs vehicle; cited from earlier work.
Another series concerns platelets. The conditions noted are these: exogenous adenosine; cited from earlier work.
Series [5] relates to closed-chest porcine model of regional ischemia and reperfusion. In words: Non-surgical ischemia-reperfusion injury in a closed-chest porcine model (75 min LAD occlusion, reperfusion). Type of series: in vivo. As for the experimental part:
The use of combined adenosine and aprotinin treatment in the cath-lab setting was performed in a closed-chest porcine model of regional ischemia and reperfusion. Farm-bred pigs were initially anesthetized with ketamine, xylazine, acepromazine, diazepam and atropine, followed by maintenance anesthesia with inhaled isoflurane. Through a small femoral artery cut-down, a pigtail catheter was fluoroscopically guided into the left ventricle for injection of non-radioactive microspheres to measure regional myocardial blood flow. A similar cut-down was performed on the contralateral femoral artery, through which was placed a sheath to introduce a 7-Fr guide catheter and angioplasty-type balloon catheters. The 7-Fr guide catheter was inserted into this sheath and fluoroscopically guided to the left main coronary artery. The left main coronary ostium was engaged by the catheter and a guide wire. An angioplasty-type balloon catheter was guided into the LAD just distal to the first diagonal branch. […]
After all instrumentation was complete, the animal was allowed to stabilize for 10 minutes. Baseline hemodynamics (arterial pressure, heart rate) and myocardial blood flow (microspheres) were measured. The microspheres were injected via the pigtail catheter to quantify myocardial blood flow during steady state. […]

For series [6], the system named is ischemically injured hearts (30 minutes of normothermic global ischemia). Conditions: blood cardioplegia supplemented with 400 μM adenosine vs unsupplemented; cited from earlier work.
The test system of series [7] is reperfusion injury in the canine preparation. The conditions noted are these: 24 hours after start of reflow, cited from earlier work.
In series [8] the test system is canine model of 15 minutes coronary artery occlusion. The conditions noted are these: 30,000 KIU/kg bolus plus 7,000 KIU/kg/hr i.v. prior to occlusion; vs saline control; cited from earlier work.
For another series, the system named is isolated rat hearts. The conditions noted are these: 105 KIU/L aprotinin, pretreatment and adjunct to crystalloid cardioplegia; cited from earlier work.
Series [9] deals with rat model of coronary artery occlusion and 24 hours of reperfusion. The conditions noted are these: cited from earlier work.
The next series relates to isolated canine hearts. The conditions noted are these: cardioplegia containing 150 KIU aprotinin, cited from earlier work.
Another series deals with rat myocardium slices. Conditions: 200 KIU aprotinin, cited from earlier work.
Series [10] concerns permanent (24 hours) coronary artery occlusion. The conditions noted are these: 100,000 KIU i.v. 30 minutes after occlusion; cited from earlier work.
The mark [11] stands for this setting: infusion for first hour of reperfusion.
Setting [12] is: 5,000 KIU/kg before onset of reperfusion, vs vehicle.
[13] abbreviates: 20,000 KIU/kg before onset of reperfusion.

In the case of “1S-[1a,2b,3b,4a(S*)]]-4-[7-[[2-(3-chloro-2-thienyl)-1-methylpropyl]amino]-3H-imidazo[4,5-b]pyridyl-3-yl]cyclopentane carboxamide [AMP-579]”, in [1], the Infarct size result was “reduced”.

Regarding `Cn1c(=O)c2[nH]c(-c3ccc(S(=O)(=O)O)cc3)nc2n(C)c1=O` [8-SPT, 8-p-sulfophenyl theophylline], the “Effect of antagonist on the effects of PolyA (infarct size)” value in series [2] is “reversed”.

`CCNC(=O)[C@H]1O[C@@H](n2cnc3c(N)nc(NCCc4ccc(CCC(=O)O)cc4)nc32)[C@H](O)[C@@H]1O` [CGS-21680, 2-[p-(2-carbonyl-ethyl)-phenylethylamino]-5′-N-ethylcarboxamidoadenosine]: the “Superoxide generation by neutrophils” value with neutrophils is recorded as “attenuated”. Moreover, in series [3] (60 min occlusion, intracoronary infusion for first hour of reperfusion, saline vehicle 29.8±2.3%), the Infarct size is reported as 15.4±2.9 % of the area at risk. Further, in [3] (setting [11]), the “Neutrophil accumulation in the area at risk” value was “significantly reduced” and the Wall motion entry is “no improvement”.

Take `CCCn1c(=O)c2[nH]c(C34CC5CC(CC3C5)C4)nc2n(CCC)c1=O` [KW-3902, 8-(3-noradamantyl)-1,3-dipropylxanthine]: the “Effect of antagonist on the effects of PolyA (infarct size)” value in [2] was “not altered”.

As to `Nc1ncnc2c1ncn2[C@@H]1O[C@H](CO)[C@@H](O)[C@H]1O` [adenosine], in series [4], the “Infarct size as percent of AAR (An/ARR)” value is “significantly lower” and the “Infarct size as percent of LV (An/LV)” value was “significantly lower”. Further, the “Superoxide generation by neutrophils” value with neutrophils is on record as “inhibited”. Moreover, in the series on platelets, the “Concentrations inhibiting platelet aggregation” value was 2 to 40 µM. The compound also came in with an Infarct size in series [5] (intracoronary adenosine approx 10-20 μM LAD blood concentration for about 30 min at reperfusion, group of three animals, delivery questionable (no vasodilatory effect at 15 min)) of 40.4±3.6%. This compound gave an Infarct size in series [5] (intracoronary adenosine approx 10-20 μM for about 30 min at reperfusion, the one experiment with delivery confirmed by vasodilation at 15 min reperfusion) of 10%. Also, the Post-ischemic systolic dysfunction entry in series [6] is “reversed”. Besides, the Regional contractile function result in series [7] (intracoronary 3.75 mg/min at onset of reperfusion) is reported as “improved”. Besides, in series [7] (intracoronary into LAD 3.75 mg/min at onset of reperfusion), the “Reduction of infarct size” value is 75%.

Consider aprotinin, for which the “Recovery of systolic function in the area at risk (systolic shortening)” value in series [8] is listed as “significantly greater recovery”. For the same compound, the Myocardial protection result with isolated rat hearts was “significant protection”. For the same compound, in series [9] (setting [12]), the “Infarct size estimated from myocardial creatine kinase loss” value is “significantly reduced” and the “Neutrophil accumulation (myocardial myeloperoxidase)” value is “significantly reduced”. For the same compound, in [9] (5,000 or 20,000 KIU/kg before onset of reperfusion), the “Appearance of apoptosis in the area at risk myocardium” value is given as “attenuated”. Moreover, in series [9] (setting [13]), the “Infarct size estimated from myocardial creatine kinase loss” value is listed as “further significantly reduced” and the “Neutrophil accumulation (myocardial myeloperoxidase)” value is on record as “significantly reduced”. In the series on isolated canine hearts, the “Lysosomal enzyme N-acetyl-β-D-glucosaminidase in coronary sinus blood during reperfusion” value is “significantly lower” and the “Recovery of systolic function (end-systolic pressure-volume relationship)” value is “significantly less recovery”. For the same compound, in the series with isolated canine hearts (vs control group), the “Post-ischemic non-specific creatine kinase (CK) activity or CK-MB isoenzyme activity” value is “no difference” and the “Recovery of post-ischemic ATP after reperfusion” value was “significantly greater”. In the series with rat myocardium slices (4° C., up to 6 hours of storage), the “ATP content and protein synthesis of myocardium slices” value is “attenuated the decline”. Moreover, the “TNFα generation and uptake by myocardial tissue slices” value in the series with rat myocardium slices was “suppressed”. Further, in [10], the “Histologically apparent infarct size” value is “decreased”.

For the compound polyadenylic acid, the “Reduction of infarct size” value in series [2] (nearly sub-vasodilator dose at reperfusion) was 50%. The “PMNs superoxide generation and adherence to coronary endothelium” value with neutrophils was “significantly inhibited”.

Source of the values: patent US20060205671A1 (priority 2003, published 2006).
